Laboratory results from article PMC9998255 (Archives of Pharmacal Research, 2023).

Legend:
NLRP3 inflammasome = format: cell-based, C57BL/6 mice
[1] = system: TAA-induced liver fibrosis; design: species or system BALB/c mice; settings: mouse, in vivo
[2] = 0.5 h, pH 7.4
[3] = 0.5 h, pH 7.4; remark: listed apart in the source
[4] = in vivo; cited from earlier work

CC(=O)OC[C@H]1O[C@@H]([S-])[C@H](OC(C)=O)[C@@H](OC(C)=O)[C@@H]1OC(C)=O.CCP(CC)CC.[Au+] [auranofin]
effect on ATP-induced IL-1β secretion (NLRP3 inflammasome): inhibited ATP-induced IL-1β secretion | efficacy on liver fibrosis compared with 10 mg/kg aurocyanide [1]: similar | percentage remaining after incubation with human liver microsomes [2]: 6.9% | percentage remaining after incubation with mouse liver microsomes [3]: 1.5% | fraction absorbed through the gastrointestinal tract [4]: 15–25%
